Reference: PMC9586926, “An efflux-susceptible antibiotic-adjuvant with systemic efficacy against mouse infections” (Scientific Reports, 2022)
Where a SMILES comes first, the peptide text is derived from it. [ ]: non-standard residue; d: D form. The star is where a group is joined. 12Ado = NCCCCCCCCCCCC(=O)O; Decanoyl = CCCCCCCCCC(=O)*; Dab = NCC[C@H](N)C(=O)O

Columns and labels:
[1] = […] S.C., mice plasma, UPLC-MS
Protocol: Animal procedures were reviewed and approved by the Institutional Animal Care and Use Committee (ethics no. IL-0800519, IL-0760711, IL-0550618, IL-0320320, IL-1270821) and performed in accordance with the “Guide for the Care and Use of Laboratory Animals”, published by the US National Research Council[70]. The study is reported in accordance with ARRIVE guidelines. All protocols employed 4–5-week-old male ICR mice, weighing 20–25 g (Envigo; Jerusalem, Israel). Mice were kept on a 12 h light/dark cycle and provided with food and water ad-libitum. At the designated experimental end-points mice were euthanized by means of CO2 asphyxiation. […]
To assess lipopeptides circulating concentrations, mice (N = 3 per group) were S.C. administered with lipopeptides solutions (0.2 ml), sacrificed at specified times afterwards and their blood was aseptically collected. […] 0.5 ml of the supernatant were diluted 2-folds with Milli-Q water and analyzed by UPLC-MS using a C18 column. Quantification was performed using a calibration-curve generated with similarly processed blood samples, initially spiked with known lipopeptide concentrations. […] Quantification was performed using a calibration-curve generated with fresh lipopeptide solutions of known concentrations prepared in Milli-Q water.

E. coli Ag100a (ΔacrAB) = test: MIC, broth microdilution, efflux deficient mutant; type: cell-based, Escherichia coli; details: E. coli Ag100a (ΔacrAB) versus Ag100
From the text: (§1) Bacteria used in this study consisted of standard American Type Culture Collection (ATCC; Biological Industries, Beit Haemek, Israel) strains, clinically isolated (CI; Sourasky Medical Center, Tel Aviv, Israel) strains, as well as isogenic mutant strains. Gram-negative bacteria included Acinetobacter baumannii ATCC 19606; Escherichia coli ATCC 25922, 35218, CFT073, CI 14384, 16327, and the isogenic pair Ag100 (wild-type) and its efflux deficient mutant Ag100a (ΔacrAB); Klebsiella pneumoniae CI 1287, 224; Pseudomonas aeruginosa ATCC 27853, CI 1278, 8634; Salmonella enterica serovar Typhimurium ATCC 14028 (wild-type) and its isogenic efflux deficient mutant ΔacrAB. Bacteria were grown in Luria–Bertani broth (LB; 5 g/l NaCl, 5 g/l yeast extract, 10 g/l tryptone; pH = 7.0) at 37 °C with shaking. Over-night cultures were diluted 10-folds into fresh growth-medium and incubated at 37 °C with shaking until reaching mid-logarithmic phase. Then, bacterial concentrations were adjusted using O.D.600 nm measurements, and bacteria were subjected to the experimental procedures listed herein.
MIC was determined according to the broth microdilution method: antimicrobials were subjected to serial twofold dilutions in LB medium, and incubated with 5 × 10^5 CFU/ml of bacteria (final volume of 200 µl) for 18–24 h at 37 °C. […]

K. pneumoniae = test: MIC, broth microdilution; type: cell-based, Klebsiella pneumoniae; details: broth microdilution in LB, 18–24 h, 37 °C; n = 2 strains
From the text: as §1
MIC was determined according to the broth microdilution method: antimicrobials were subjected to serial twofold dilutions in LB medium, and incubated with 5 × 10^5 CFU/ml of bacteria (final volume of 200 µl) for 18–24 h at 37 °C. Then, O.D.620 nm was measured (BioTek Instruments Synergy HT; Winooski, VT, USA), and the MIC was defined as the lowest antimicrobial concentration for which no increase in O.D.620 nm was evident, compared to the untreated control.

RAW 264.7 = test: Cytotoxicity, Alamar blue; type: cell-based, murine; details: 24 h incubation, read-out: IC50 RAW 264.7 (50% inhibition of cells respiration)
Protocol: (§2) Cell lines used in this study included murine RAW 264.7 macrophages and human embryonic kidney HEK-293FT cells (ATCC, Biological Industries, Beit Haemek, Israel). Cells were grown in Dulbecco’s modified eagle medium (DMEM) containing […] glucose, L-glutamine, sodium bicarbonate and sodium pyruvate, supplemented with 10% fetal bovine serum and pen-strep, at 37 °C and 5% CO2.
(§3) Lipopeptides cytotoxicity was determined using fluorescent measurements of reduced resazurin. 2 × 10^4 cells were first cultured in 96-well plates over-night (final volume of 100 µl) at 37 °C and 5% CO2. Then, the medium was removed and cells were incubated for an additional 24 h with serial twofold dilutions of the lipopeptides in growth medium. Then, 10 µl of Alamar blue were added and plates were incubated for 3 h, after which fluorescence (excitation: 530 nm; emission: 590 nm) of the reduced resazurin was recorded (BioTek Instruments Synergy HT; Winooski, VT, USA).

E. coli 25922 = test: Outer membrane permeabilization, NPN fluorescence; type: cell-based, Escherichia coli
Protocol: Lipopeptides ability to permeabilize the OM was evaluated using fluorescent measurements of N-phenyl-1-naphthylamine (NPN)[67]. 200 µl of an over-night culture were diluted into 10 ml of fresh LB medium and incubated at 37 °C with shaking until reaching O.D.600 nm = 0.5. The culture was then centrifuged at 10,000 RCF for 3 min, the supernatant aspirated, and the pellet resuspended in equal volume of 5 mM HEPES containing 5 mM glucose (pH = 7.2). This suspension was then mixed with NPN (5 mM in acetone) to reach a final NPN concentration of 10 µM. Then, 190 µl of this mixture were dispensed into black microtiter plates, mixed with 10 µl of HEPES containing serial twofold dilutions of lipopeptides and fluorescence (excitation: 360 nm; emission: 460 nm) was recorded immediately for up to 10 min at 37 °C with shaking[29] (BioTek Instruments Synergy HT; Winooski, VT, USA). In a modified version of this assay, in which efflux was inhibited, bacteria (similarly prepared) were incubated with the lipopeptides in presence or absence of 100 µM CCCP for 5 min. Samples were then twice centrifuged at 10,000 RCF for 3 min, the supernatant aspirated, and the pellet resuspended in equal volume of 5 mM HEPES containing 20 mM glucose (pH = 7.2), so as to re-energize the efflux machinery. NPN was then added (final concentration of 10 µM) and fluorescence was recorded immediately thereafter.

HEK-293FT = test: Cytotoxicity, Alamar blue; type: cell-based, human; details: 24 h incubation, read-out: IC50 HEK-293FT (50% inhibition of cells respiration)
Protocol: as §2, §3

## CCCCCCCCCC(=O)N[C@@H](CCN)C(=O)N[C@@H](CCN)C(=O)NCCCCCCCCCCCC(=O)N[C@@H](CCN)C(N)=O [C10BBc12B, decanoyl-bis.diaminobutyrate-aminododecanoyl-diaminobutyrate-amide] (Decanoyl-[Dab][Dab][12Ado][Dab]-NH2)
[1]
  time with antibiotics potentiating concentrations (≥ 2.5 µg/ml) maintained: > 2 h
[1]; n = 3 per time point
  time after which most lipopeptide cleared from the bloodstream: ~ 180 min
E. coli Ag100a (ΔacrAB)
  MIC change against efflux deficient mutant versus wild-type: eightfold reduction in MIC value
K. pneumoniae
  MIC K. pneumoniae (n=2): > 50 µM
RAW 264.7
  IC50: > 50 µM
E. coli 25922
  reduction of NPN fluorescence by 10 mM MgCl2: almost complete
HEK-293FT
  IC50: > 50 µM
